Tests used:
[1] = DRUGMATRIX: Nicotinic Acetylcholine radioligand binding (ligand: [125I] Epibatidine); type: cell membranes, Membrane; details: imr-32; Not Active = under 50% inhibition at 10 µM
[2] = biological target: 5-hydroxytryptamine receptor 6 (Homo sapiens, UniProt P50406); type: cell membranes, HeLa, Membrane; details: hela; also: in other assays of this panel Not Active means under 50% inhibition at 10 µM
[3] = biological target: T1, 5-hydroxytryptamine receptor 2C (Homo sapiens, UniProt P28335); assay: DRUGMATRIX: Serotonin (5-Hydroxytryptamine) 5-HT2C radioligand binding (ligand: [3H] Mesulergine); type: cell membranes, CHO-K1, Membrane; details: Not Active = under 50% inhibition at 10 µM
T1 sequence (P28335 whole entry): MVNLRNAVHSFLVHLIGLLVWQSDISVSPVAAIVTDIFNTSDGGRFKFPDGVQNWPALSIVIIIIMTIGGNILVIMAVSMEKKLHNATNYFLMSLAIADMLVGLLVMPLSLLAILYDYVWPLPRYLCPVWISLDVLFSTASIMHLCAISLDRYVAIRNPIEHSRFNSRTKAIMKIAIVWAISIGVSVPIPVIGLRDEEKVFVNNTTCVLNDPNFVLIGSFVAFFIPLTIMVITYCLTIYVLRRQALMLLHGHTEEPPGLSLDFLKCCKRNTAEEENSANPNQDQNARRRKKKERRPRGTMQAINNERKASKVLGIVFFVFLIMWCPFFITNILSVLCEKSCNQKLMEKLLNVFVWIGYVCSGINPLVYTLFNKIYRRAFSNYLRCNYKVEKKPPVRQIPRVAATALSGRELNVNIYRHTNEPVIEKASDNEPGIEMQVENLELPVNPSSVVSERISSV

Cytochrome P450 1A2 = biological target: T2, Cytochrome P450 1A2 (Homo sapiens, UniProt P05177); details: bti-tn-5b1-4; also: in other assays of this panel Not Active means under 50% inhibition at 10 µM
T2 sequence (P05177 whole entry): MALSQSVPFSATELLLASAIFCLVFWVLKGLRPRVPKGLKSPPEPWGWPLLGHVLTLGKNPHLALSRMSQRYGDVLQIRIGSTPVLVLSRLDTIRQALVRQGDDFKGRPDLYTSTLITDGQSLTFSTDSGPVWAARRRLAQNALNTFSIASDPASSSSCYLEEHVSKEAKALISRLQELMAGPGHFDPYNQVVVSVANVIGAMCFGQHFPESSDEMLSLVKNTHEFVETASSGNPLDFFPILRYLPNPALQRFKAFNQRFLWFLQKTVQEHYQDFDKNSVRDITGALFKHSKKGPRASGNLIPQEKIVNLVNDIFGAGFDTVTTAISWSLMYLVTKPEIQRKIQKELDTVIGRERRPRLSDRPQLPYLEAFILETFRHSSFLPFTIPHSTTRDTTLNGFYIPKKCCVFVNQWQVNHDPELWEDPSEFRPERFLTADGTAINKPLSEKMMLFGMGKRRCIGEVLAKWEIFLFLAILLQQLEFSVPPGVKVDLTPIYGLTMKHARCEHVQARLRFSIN

[4] = biological target: T3, Receptor-type tyrosine-protein phosphatase C (Homo sapiens, UniProt P08575); parameters: species or system Escherichia coli;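 also: inhibition of CD45 enzyme activity measured using DiFMUP as substrate; in other assays of this panel Not Active means under 50% inhibition at 10 µM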
T3 sequence (P08575 whole entry): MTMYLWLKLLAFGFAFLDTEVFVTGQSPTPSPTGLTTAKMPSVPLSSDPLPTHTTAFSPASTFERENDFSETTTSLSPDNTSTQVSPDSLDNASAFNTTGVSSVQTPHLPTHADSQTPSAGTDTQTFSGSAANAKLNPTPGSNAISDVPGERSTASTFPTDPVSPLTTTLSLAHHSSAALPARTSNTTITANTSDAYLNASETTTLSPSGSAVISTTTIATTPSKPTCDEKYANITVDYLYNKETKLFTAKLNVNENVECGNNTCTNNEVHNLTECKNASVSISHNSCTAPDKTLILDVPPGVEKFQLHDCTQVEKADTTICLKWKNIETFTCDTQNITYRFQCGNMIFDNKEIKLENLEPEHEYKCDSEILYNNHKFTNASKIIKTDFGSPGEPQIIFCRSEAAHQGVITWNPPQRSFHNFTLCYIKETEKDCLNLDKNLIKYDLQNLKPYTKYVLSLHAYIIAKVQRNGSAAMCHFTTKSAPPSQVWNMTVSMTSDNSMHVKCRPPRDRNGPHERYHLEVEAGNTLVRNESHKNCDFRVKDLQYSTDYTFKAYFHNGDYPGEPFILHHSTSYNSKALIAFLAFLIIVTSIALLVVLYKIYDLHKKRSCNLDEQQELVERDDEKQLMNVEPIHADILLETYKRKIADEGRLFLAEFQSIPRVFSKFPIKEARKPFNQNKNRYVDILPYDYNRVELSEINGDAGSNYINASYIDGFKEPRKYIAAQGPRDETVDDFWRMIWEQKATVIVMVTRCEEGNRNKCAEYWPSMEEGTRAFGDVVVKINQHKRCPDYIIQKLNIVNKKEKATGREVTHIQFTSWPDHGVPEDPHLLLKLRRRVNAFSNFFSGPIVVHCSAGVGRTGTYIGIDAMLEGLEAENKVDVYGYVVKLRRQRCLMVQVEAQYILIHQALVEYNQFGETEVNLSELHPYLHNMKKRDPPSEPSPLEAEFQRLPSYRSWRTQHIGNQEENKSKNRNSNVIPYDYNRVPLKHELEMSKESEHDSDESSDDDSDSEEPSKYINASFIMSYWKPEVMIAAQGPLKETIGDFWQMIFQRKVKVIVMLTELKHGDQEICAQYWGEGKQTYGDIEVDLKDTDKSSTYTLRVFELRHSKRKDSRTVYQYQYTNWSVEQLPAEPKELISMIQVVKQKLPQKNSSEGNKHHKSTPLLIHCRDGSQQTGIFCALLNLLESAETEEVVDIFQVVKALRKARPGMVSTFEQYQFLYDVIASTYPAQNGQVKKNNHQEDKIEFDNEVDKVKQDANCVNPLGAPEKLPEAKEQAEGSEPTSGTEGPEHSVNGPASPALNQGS

[5] = DRUGMATRIX: Phosphodiesterase PDE3 enzyme inhibition (substrate: [3H]cAMP + cAMP); type: tissue-based, Homo sapiens; details: platelet; Not Active = under 50% inhibition at 10 µM
[6] = biological target: Delta-type opioid receptor (Homo sapiens, UniProt P41143); type: cell membranes, Membrane; details: hek293; also: in other assays of this panel Not Active means under 50% inhibition at 10 µM
Delta-type opioid receptor, sequence (P41143 whole entry): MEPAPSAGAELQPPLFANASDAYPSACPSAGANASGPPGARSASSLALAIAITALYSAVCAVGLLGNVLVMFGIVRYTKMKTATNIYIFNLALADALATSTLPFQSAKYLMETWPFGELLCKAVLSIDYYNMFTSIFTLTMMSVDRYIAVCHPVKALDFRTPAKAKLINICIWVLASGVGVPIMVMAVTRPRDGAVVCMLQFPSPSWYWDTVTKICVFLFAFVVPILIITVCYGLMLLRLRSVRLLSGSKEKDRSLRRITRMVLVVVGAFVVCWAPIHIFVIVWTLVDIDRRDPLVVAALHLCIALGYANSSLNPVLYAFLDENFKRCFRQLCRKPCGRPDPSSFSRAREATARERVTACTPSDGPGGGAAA

5-hydroxytryptamine receptor 6, sequence (P50406 whole entry): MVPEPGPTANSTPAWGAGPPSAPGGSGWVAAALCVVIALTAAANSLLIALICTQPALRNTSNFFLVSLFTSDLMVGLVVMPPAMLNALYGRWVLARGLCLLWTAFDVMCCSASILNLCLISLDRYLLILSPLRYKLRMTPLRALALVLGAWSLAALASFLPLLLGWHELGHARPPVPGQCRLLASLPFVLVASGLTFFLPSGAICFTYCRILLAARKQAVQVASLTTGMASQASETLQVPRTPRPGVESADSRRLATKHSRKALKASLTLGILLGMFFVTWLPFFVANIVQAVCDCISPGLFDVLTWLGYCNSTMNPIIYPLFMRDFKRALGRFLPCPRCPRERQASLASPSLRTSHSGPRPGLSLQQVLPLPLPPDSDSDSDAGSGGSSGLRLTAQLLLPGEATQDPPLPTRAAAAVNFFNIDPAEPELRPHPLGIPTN

Row | Structure (SMILES) | IC50 [1] | Ki [1] | IC50 [2] | IC50 ([3]; cho-k1) | IC50 (Cytochrome P450 1A2) | Ki (Cytochrome P450 1A2) | IC50 [4] | IC50 [5] | Ki [5] | IC50 [6] | IC50 ([3]; read-out: IC50) [µM] | Ki ([3]; read-out: Ki) [µM]
1 | CC(C)(C)NC(=O)[C@H]1CC[C@H]2[C@@H]3CC[C@H]4NC(=O)C=C[C@]4(C)[C@H]3CC[C@]12C [FINASTERIDE] | Not Active | Not Active | Not Active | Not Active | Not Active | Not Active | Not Active | Not Active | Not Active | Not Active | – | –
2 | Nc1ccn([C@@H]2O[C@H](CO)[C@@H](O)C2(F)F)c(=O)n1 [GEMCITABINE] | Not Active | Not Active | Not Active | Not Active | Not Active | Not Active | Not Active | Not Active | Not Active | Not Active | – | –
3 | N=C(N)NC(=O)Cc1c(Cl)cccc1Cl [GUANFACINE] | Not Active | Not Active | Not Active | – | Not Active | Not Active | Not Active | Not Active | Not Active | Not Active | 1.45 | 0.761
4 | NNc1nncc2ccccc12 [HYDRALAZINE] | Not Active | Not Active | Not Active | Not Active | Not Active | Not Active | Not Active | Not Active | Not Active | Not Active | – | –
5 | COC1=C(OC)C(=O)C(CCCCCCCCCCO)=C(C)C1=O [IDEBENONE] | Not Active | Not Active | Not Active | Not Active | Not Active | Not Active | Not Active | Not Active | Not Active | Not Active | – | –
6 | CC(C)NNC(=O)c1ccncc1 [IPRONIAZID] | Not Active | Not Active | Not Active | Not Active | Not Active | Not Active | Not Active | Not Active | Not Active | Not Active | – | –
7 | Cc1c(OCC(F)(F)F)ccnc1C[S+]([O-])c1nc2ccccc2[nH]1 (stereo unspecified) [LANSOPRAZOLE] | Not Active | Not Active | Not Active | Not Active | Not Active | Not Active | Not Active | Not Active | Not Active | Not Active | – | –
8 | COc1ccc2[nH]cc(CCNC(C)=O)c2c1 [MELATONIN] | Not Active | Not Active | Not Active | Not Active | Not Active | Not Active | Not Active | Not Active | Not Active | Not Active | – | –
9 | NC(=O)C[S+]([O-])C(c1ccccc1)c1ccccc1 (stereo unspecified) [MODAFINIL] | Not Active | Not Active | Not Active | Not Active | Not Active | Not Active | Not Active | Not Active | Not Active | Not Active | – | –
10 | CCN(CC)CCOCCC1=CCC2CC1C2(C)C (stereo unspecified) [MYRTECAINE] | Not Active | Not Active | Not Active | Not Active | Not Active | Not Active | Not Active | Not Active | Not Active | Not Active | – | –
11 | O=C(O)c1cccnc1Nc1cccc(C(F)(F)F)c1 [NIFLUMIC ACID] | Not Active | Not Active | Not Active | Not Active | Not Active | Not Active | Not Active | Not Active | Not Active | Not Active | – | –
12 | O=C(N/N=C/c1ccc([N+](=O)[O-])o1)c1cc([N+](=O)[O-])cc([N+](=O)[O-])c1O [NIFURSOL] | Not Active | Not Active | Not Active | Not Active | Not Active | Not Active | Not Active | Not Active | Not Active | Not Active | – | –
13 | COC(=O)Nc1nc2ccc(C(=O)c3cccs3)cc2[nH]1 [NOCODAZOLE] | Not Active | Not Active | Not Active | Not Active | Not Active | Not Active | Not Active | Not Active | Not Active | Not Active | – | –
14 | C#CC1(O)CC[C@H]2[C@@H]3CCC4=CC(=O)CC[C@@H]4[C@H]3CC[C@@]21CC (stereo partly specified) [NORGESTREL] | Not Active | Not Active | Not Active | Not Active | Not Active | Not Active | Not Active | Not Active | Not Active | Not Active | – | –
15 | COC(=O)Nc1nc2ccc([S+]([O-])c3ccccc3)cc2[nH]1 (stereo unspecified) [OXFENDAZOLE] | Not Active | Not Active | Not Active | Not Active | Not Active | Not Active | Not Active | Not Active | Not Active | Not Active | – | –
16 | C[n+]1ccc(-c2cc[n+](C)cc2)cc1.[Cl-].[Cl-] [PARAQUAT DICHLORIDE] | Not Active | Not Active | Not Active | Not Active | Not Active | Not Active | Not Active | Not Active | Not Active | Not Active | – | –
17 | C[n+]1ccccc1/C=N/O.[Cl-] [PRALIDOXIME CHLORIDE] | Not Active | Not Active | Not Active | Not Active | Not Active | Not Active | Not Active | Not Active | Not Active | Not Active | – | –
18 | COc1cc2nc(N3CCN(C(=O)c4ccco4)CC3)nc(N)c2cc1OC [PRAZOSIN] | Not Active | Not Active | Not Active | Not Active | Not Active | Not Active | Not Active | Not Active | Not Active | Not Active | – | –

Source: ChEMBL document CHEMBL1909046, “DrugMatrix in vitro pharmacology data”
